Patent US10000775B2, “Biosynthesis of 1-undecene and related terminal olefins” (The Regents of the University of California, priority 2013, dated 2018)

Key:
Type in all cases: biochemical, Pseudomonas fluorescens Pf-5
[1] = tested on: PFL_4321; test: In vitro enzymatic assays of PFL_4321 with fatty acid substrates or analogs; settings: purified PFL_4321, Fe2+, ascorbic acid
Procedure: A typical condition is as follows: 1 mL of reaction mixture contains 50 mM MES buffer (pH 6.2), 300 mM NaCl, 100 μM (NH4)2Fe(SO4)2, 1 mM ascorbic acid, 100 μM fatty acid substrate or analogs, and 10 μM enzyme. The reaction was performed in a sealed headspace vial at 30° C., initiated by adding lauric acid and quenched by injecting equal volume of 5 M NaOH. 1-Undecene production was analyzed and quantified by using the SPME-GCMS method. To determine the kinetic parameters of PFL_4321 on lauric acid, initial velocities at 1, 10, 20, 50, 100, and 150 μM of lauric acid were measured (25 mM lauric acid solution was prepared by adding 0.5% tergitol and heating at 65° C. for 10 min). The reactions were quenched at 2, 4, 6, 8, and 10 seconds, and the acquired turnover rates were fit to the Michaelis-Menten equation using GraphPad Prism to obtain kcat and Km. The kcat and Km of myristic acid and capric acid were determined similarly.
To acquire the kinetic parameters of PFL_4321 on 11-aminoundecanoic acid and 12-aminododecanoic acid, initial velocities at 25, 50, 100, 150, 200, 250, 500, and 700 μM were measured. 50 μl of aliquots of the reaction were quenched at 1, 1.5, 2, 2.5, 3, 3.5, 4, 4.5, 5, 5.5, and 6 minutes by adding 100 μl of acetonitrile. Denatured enzymes were removed by centrifugation at 15,000 g for 20 min. LC-HRMS analysis was carried out on an Agilent Technologies 6520 Accurate-Mass Q-TOF LC-MS instrument equipped with an Agilent Eclipse Plus C18 column (3.5 μm, 4.6×100 mm). 10 μL of the solution was injected into LC-HRMS and a linear gradient of 55 to 95% CH3CN (vol/vol) over 15 min in H2O with 0.1% (vol/vol) formic acid at a flow rate of 0.5 mL/min was used for analysis. The exact masses of aminoundec-1-ene and aminodec-1-ene were extracted, and the peaks were integrated and compared with the standard compounds.

[2] = tested on: PFL_4321; test: Metal ion requirement of PFL_4321 in vitro (1-undecene production from lauric acid)
Procedure: Additional in vitro assays were performed with PFL_4321 using lauric acid, its esters, or thioesters as potential substrates. […] PFL_4321 was incubated with lauric acid in the presence of various metal ions, including Fe^2+, Fe^3+, Mg^2+, Ca^2+, Mn^2+, Co^2+, Ni^2+, Cu^2+, and Zn^2+.

[3] = tested on: PFL_4321; test: Test of H2O2 as a possible substrate
Procedure: To examine whether the H2O2/Fe^3+ or the H2O2/Fe^2+ system provides for the PFL_4321 activity, anaerobic enzymatic reactions in the glove box were performed. The deoxygenated reaction mixture contained 50 mM MES buffer (pH 6.2), 100 mM NaCl, 100 μM PFL_4321, 100 μM either FeCl3 or (NH4)2Fe(SO4)2, 1 mM LA, and various amount of H2O2 (100, 200, 500, 1000, 5000 μM), and 1-undecene production was analyzed. The aerobic reaction was carried out under similar conditions except that the O2 was provided by mixing with the equal volume of O2-saturated buffer solution (50 mM MES, pH 6.2, 100 mM NaCl).

[4] = tested on: PFL_4321; test: Survey of reductive cofactors/cosubstrates under iron-limited conditions; settings: iron-limiting conditions; 1 mM reductive cofactor
Procedure: FIG. 7 illustrates a comparison of 1-undecene production by using various reductive cofactors/cosubstrates under iron-limited conditions. 2.5 mL of reaction mixture contains 100 μM MES (pH 6.1), 300 mM NaCl, 50 μM lauric acid, 5 μM PFL_4321, 0.1 μM (NH4)2Fe(SO4)2, and 1 mM reductive cofactor. When needed, 40 μM FAD, FMN, ferredoxin, or phenazine, and 20 μM flavin reductase (FL-R) or ferredoxin reductase (FR) were added.
A survey was conducted to identify the possible reductive cofactor/cosubstrates according to the well-studied oxygen-activating iron-dependent oxygenases, including but not limited to α-ketoglutarate, ascorbic acid, glutathione, cysteine, nicotinamides, flavins, ferredoxin (F. H. Vaillancourt et al., Nature 436, 1191, 2005; W. C. Chang et al., Nature 496, 114, 2013; L. M. Mirica et al., J Am Chem Soc 130, 8122, 2008; P. C. Bruijnincx et al., Chem Soc Rev 37, 2716, 2008). […] Accordingly, ascorbic acid was included in all of the following in vitro assays and the kinetic parameters of PFL_4321 toward lauric acid (C12) were determined (FIG. 8).

[5] = tested on: PFL_4321; test: Reductive co-substrate screening, with chlorite dismutase coupled assay; settings: coupled with chlorite dismutase reaction to generate O2 in situ
Procedure: FIG. 28 illustrates a comparison of 1-undecene production by using various reductive cofactors/cosubstrates in the presence of excessive O2 provided by the coupled […] dismutase reaction. The reaction mixture contains 100 μM MES (pH 6.1), 300 mM NaCl, 1 mM lauric acid (dissolved in 0.5% tergitol), 100 μM PFL_4321, 100 μM (NH4)2Fe(SO4)2, 2 μM chlorite dismutase, 4 mM sodium chlorite, and 2 mM reductive cofactor/co-substrates. When needed, 40 μM FAD, FMN, ferredoxin, PQQ, or PMS, and 20 μM flavin reductase (FL-R) or ferredoxin reductase (FR) were added. 1-undecene production was analyzed after reacting for 100 min. Error bars represent standard deviations from at least three independently performed experiments.
To survey the possible reductive co-substrates, the oxygenated buffer solution (50 mM MES, pH 6.2, 100 mM NaCl) was mixed with an equal volume of an O2-free solution containing 50 mM MES buffer (pH 6.2), 100 mM NaCl, 200 μM PFL_4321, 200 μM (NH4)2Fe(SO4)2, 2 mM LA, and 4 mM of the reductive co-substrate, so that the final mixture contained 50 mM MES buffer (pH 6.2), 100 mM NaCl, 100 μM PFL_4321, 100 μM (NH4)2Fe(SO4)2, 1 mM LA, and 2 mM of the reductive co-substrate. The reaction was carried out in a sealed GC vial due to the semi-volatility of 1-undecene. […]

Compound	conversion of the substrate by PFL_4321 (to the corresponding minus-1-carbon 1-alkene or other product) [1]	also measured
CCCCCCCCCC=CC(=O)O [2,3-dodecenoic acid]	no activity	–
CCCCCCCCC(C)CCC(=O)O (centres unmarked) [4-methyldodecanoic acid]	converted to their corresponding terminal olefins	–
C#CCCCCCCCCC(=O)O [10-undecynoic acid]	catalyzed the conversion	–
NCCCCCCCCCCC(=O)O [11-aminoundecanoic acid]	catalyzed the conversion	–
O=C(O)CCCCCCCCCCBr [11-bromoundecanoic acid]	catalyzed the conversion	–
CC(C)CCCCCCCCCC(=O)O [11-methyldodecanoic acid]	converted to their corresponding terminal olefins	–
NCCCCCCCCCCCC(=O)O [12-aminododecanoic acid]	catalyzed the conversion	–
O=C(O)CCCCCCCCCCCBr [12-bromododecanoic acid]	catalyzed the conversion	–
O=C(O)CN(CCN(CC(=O)O)CC(=O)O)CC(=O)O [EDTA, ethylenediaminetetraacetic acid]	–	effect on 1-undecene formation by PFL_4321, lauric acid and E. coli crude extract ([2]; addition of chelating agent): quenched
[Fe+2] [Fe^2+]	–	1-undecene production by PFL_4321 with lauric acid in the presence of the metal ion ([2]; PFL_4321 incubated with lauric acid and metal ion): elicited the 1-undecene production
OO [H2O2]	–	1-undecene formation in the presence of H2O2 ([3]; anaerobic reactions with either PFL_4321-Fe(III) or PFL_4321-Fe(II)): no 1-undecene was formed; 1-undecene formation in the presence of H2O2 ([3]; both H2O2 and O2, PFL_4321-Fe(III)): no 1-undecene was formed; effect of H2O2 on 1-undecene formation ([3]; reaction containing O2 and PFL_4321-Fe(II)): did not promote
[2H]C([2H])(CCCCCCCCCC)C(=O)O [[α,α-D2]lauric acid]	led to the production of 1-undecene retaining both deuterium atoms	–
O=C1O[C@H]([C@@H](O)CO)C(O)=C1O [ascorbic acid]	–	effect on the yield of 1-undecene [4]: significantly increased; multiple turnovers for PFL_4321 in vitro [5]: allowed for multiple turnovers; rate of 1-undecene production with multiple turnovers [5]: four
CCCCCCCCCC(=O)O [capric acid]	converted	–
CCCCCCCC(=O)O [caprylic acid]	failed to act	–
N[C@@H](CS)C(=O)O [cysteine]	–	effect on the yield of 1-undecene [4]: modest effect
O=S(O)S(=O)O [dithionite]	–	effect on 1-undecene production by PFL_4321 ([3]; added to reduce O2 to H2O2 in situ): inhibited
CCCCCCCCCCCCCC(=O)O [myristic acid]	converted	–
CCCCCCCCCCCCCCCC(=O)O [palmitic acid]	failed to act	–
CCCCCCCCCCC(O)C(=O)O (stereo not drawn) [α-hydroxydodecanoic acid]	transformed	–
CCCCCCCCCC(O)CC(=O)O (stereo not drawn) [β-hydroxydodecanoic acid]	no activity	–
[D23]lauric acid	led to the production of [D22]1-undecene	–
